From publication PMC12557438, “Thiadiazino-indole, thiadiazino-carbazole and benzothiadiazino-carbazole dioxides: synthesis, physicochemical and early ADME characterization of representatives of new tri-, tetra- and pentacyclic ring systems and their intermediates” (Beilstein Journal of Organic Chemistry, 2025)
In brackets after ≈: the same amount, converted by molar mass.

Columns and labels:
Format in all cases: physicochemical
[1] = DMSO solubility (stock solution preparation)
Protocol: (§1) Kinetic aqueous solubility assay. All compounds were dissolved in DMSO to make stock solutions at 10 mM concentration. […] 5 μL of the stock solutions was pipetted into a 96-well plate containing 495 μL PBS (pH 6.5) in each well to achieve 100 μM target concentration (1% DMSO). […] The plate was then sealed and shaken for 2 hours at room temperature. Each compound was investigated in 3 replicates. After 2 hours, the samples were filtered on a MultriscreenHTS filter plate (MSSLBPC, polycarbonate membrane, Merck KGaA, Darmstadt, Germany) by a Millipore Vacuum Manifold (Merck KGaA, Darmstadt, Germany). Before analyzing, 20 vol % acetonitrile was added to each well to avoid sample precipitation during HPLC analysis.

[2] = Determination of the capacity factor (logk) by RP-HPLC; settings: reversed-phase chromatographic capacity factor, eluent pH 7.0
Protocol: Determination of the capacity factor. […] The same analytical method was used with modified eluents: eluent A was 20 mM triethylamine with phosphoric acid (pH 7.0), and eluent B was acetonitrile without additives. The method time was slightly extended, with a 1-minute longer gradient, resulting in an 8-minute program. The capacity factor was calculated with Equation 3: […]
where k is the capacity factor, tR is the retention time (min) of the compounds and t0 is the dead-time of the column (min).

[3] = Kinetic aqueous solubility assay; parameters: key to Kinetic solubility (no value): –: Compounds with no value were under the detection limit; settings: room temperature; for solubility kinetic at 2 h: PBS buffer, pH 6.5, aqueous buffer, kinetic from dmso stock, PBS pH 6.5, 100 µM target concentration (1% DMSO), mean of 3 replicates, read-out: Kinetic solubility; for Kinetic solubility (no value): PBS pH 6.5, 2 hours, dash = under the detection limit
Protocol: as §1
Analytical methods. […] For a 7-minute long gradient program, eluents A (0.1% formic acid in water) and B (0.1% formic acid in acetonitrile) were used as follows: initial conditions with 30% B were kept for 1 minute, then 90% B was achieved within 3 minutes, kept for further 1 minute, finally the initial condition was adjusted and equilibrated for further 2 minutes. 5-Point calibration series were measured from each compound resulting in R^2 ≈ 0.9990–0.9999.

highest concentration achieved in DMSO [1]	logk (−) pH 7.0 [2]	solubility kinetic at 2 h [3]	Kinetic solubility (no value) [3]	SMILES
0.5 mM	0.660	2.8 ± 0.2 µM (≈ 1.07 µg/mL)		CN1N=C(c2ccccc2)c2cccc(NN=C3CCCCC3)c2S1(=O)=O [Compound 7j]
1 mM	0.653		–	CC1=NN(C)S(=O)(=O)c2c(N/N=C3\CCCc4ccccc43)cccc21 [(E)-9a]
0.5 mM	0.695		–	CN1N=C(c2ccccc2)c2cccc(N/N=C3\CCCc4ccccc43)c2S1(=O)=O [(E)-9b]
0.5 mM	0.661	2.2 ± 0.1 µM (≈ 0.811 µg/mL)		CN1N=C(c2ccccc2)c2cccc(NN=C3CCCC3)c2S1(=O)=O [Compound 7i]
